Data taken from ChEMBL document CHEMBL1667844, “Synthesis, structure-activity relationships and preliminary antitumor evaluation of benzothiazole-2-thiol derivatives as novel apoptosis inducers” (Bioorg Med Chem Lett, 2011).

Legend:
[1] = tested on: MCF7; assay: Cytotoxicity against human MCF7 cells after 48 hrs by MTT assay; assay type: functional, cell-based; conditions: MCF7, 48 h
[2] = tested on: HepG2; assay: Cytotoxicity against human HepG2 cells after 48 hrs by MTT assay; assay type: functional, cell-based; conditions: HepG2, 48 h
[3] = tested on: SK-OV-3; assay: Cytotoxicity against human SKOV3 cells after 48 hrs by MTT assay; assay type: functional, cell-based; conditions: SK-OV-3, 48 h
[4] = tested on: A-375; assay: Cytotoxicity against human A375 cells after 48 hrs by MTT assay; assay type: functional, cell-based; conditions: A-375, 48 h
[5] = tested on: MDA-MB-468; assay: Cytotoxicity against human MDA-MB-468 cells after 48 hrs by MTT assay; assay type: functional, cell-based; conditions: MDA-MB-468, 48 h
[6] = tested on: BXPC-3; assay: Cytotoxicity against human BxPC3 cells after 48 hrs by MTT assay; assay type: functional, cell-based; conditions: BXPC-3, 48 h
[7] = tested on: A-431; assay: Cytotoxicity against human A431 cells after 48 hrs by MTT assay; assay type: functional, cell-based; conditions: A-431, 48 h
[8] = tested on: HeLa; assay: Cytotoxicity against human HeLa cells after 48 hrs by MTT assay; assay type: functional, cell-based
[9] = tested on: HCT-116; assay: Cytotoxicity against human HCT116 cells after 48 hrs by MTT assay; assay type: functional, cell-based; conditions: HCT-116, 48 h
[10] = tested on: SW-620; assay: Cytotoxicity against human SW620 cells after 48 hrs by MTT assay; assay type: functional, cell-based; conditions: SW-620, 48 h
[11] = tested on: SK-BR-3; assay: Cytotoxicity against human SK-BR-3 cells after 48 hrs by MTT assay; assay type: functional, cell-based; conditions: SK-BR-3, 48 h
[12] = tested on: A549; assay: Cytotoxicity against human A549 cells after 48 hrs by MTT assay; assay type: functional, cell-based; conditions: A549, 48 h
[13] = tested on: SW480; assay: Cytotoxicity against human SW480 cells after 48 hrs by MTT assay; assay type: functional, cell-based; conditions: SW480, 48 h
[14] = tested on: PC-3; assay: Cytotoxicity against human PC3 cells after 48 hrs by MTT assay; assay type: functional, cell-based; conditions: PC-3, 48 h
[15] = tested on: HepG2; assay: Induction of apoptosis in human HepG2 cells assessed as DNA content at sub-G1 phase at 1.2 uM after 24 hrs using propidium iodide staining by flow cytometry (reference value: 4.3 %); assay type: functional
[16] = tested on: HepG2; assay: Induction of apoptosis in human HepG2 cells assessed as DNA content at sub-G1 phase at 0.3 uM after 24 hrs using propidium iodide staining by flow cytometry (reference value: 4.3 %); assay type: functional
[17] = tested on: HepG2; assay: Induction of apoptosis in human HepG2 cells assessed as DNA content at sub-G1 phase after 24 hrs using propidium iodide staining by flow cytometry; assay type: functional, cell-based
[18] = tested on: HepG2; assay: Induction of apoptosis in human HepG2 cells assessed as morphological changes after 24 hrs using propidium iodide staining by fluorescence microscopic analysis; assay type: functional, cell-based
[19] = tested on: HepG2; assay: Induction of apoptosis in human HepG2 cells assessed as DNA content at sub-G1 phase at 0.6 uM after 24 hrs using propidium iodide staining by flow cytometry (reference value: 4.3 %); assay type: functional

SMILES | IC50 [1] [µM] | IC50 [2] [µM] | further results
COc1ccc(CNC(=O)CSc2nc3ccc(NC(=O)c4ccc(Cl)cc4)cc3s2)cc1 | 19.2 | 7.4 | 
CNC(=O)CSc1nc2ccc(NC(C)=O)cc2s1 | > 100 | > 100 | 
CNC(=O)CSc1nc2ccc(NC(=O)c3ccc([N+](=O)[O-])cc3)cc2s1 | > 100 | > 100 | 
O=C(CSc1nc2ccc(NC(=O)CCl)cc2s1)NCc1ccc(Cl)cc1 | 4.9 | 1.8 | 
O=C(CSc1nc2ccc(NC(=O)c3ccccc3)cc2s1)NCc1ccccc1 | 35.6 | 34.2 | 
O=C(CSc1nc2ccc(NC(=O)c3ccc(Cl)cc3)cc2s1)NCc1ccccc1 | 25.9 | 25.4 | 
O=C(CSc1nc2ccc(NC(=O)c3ccccc3)cc2s1)NCc1ccc(Cl)cc1 | 33.7 | 30.1 | 
O=C(CSc1nc2ccc(NC(=O)c3ccc([N+](=O)[O-])cc3)cc2s1)NCc1ccc(Cl)cc1 | > 100 | > 100 | 
CNC(=O)CSc1nc2ccc(NC(=O)CCl)cc2s1 | 5 | 1.9 | 
CC(=O)Nc1ccc2nc(SCC(=O)NCc3ccccc3)sc2c1 | 17.6 | 9.2 | 
CNC(=O)CSc1nc2ccc(NC(=O)c3ccc(Cl)cc3)cc2s1 | 29.4 | 15.3 | 
CNC(=O)CSc1nc2ccc(NC(=O)c3ccccc3OC)cc2s1 | 23.4 | 18.5 | 
CC(=O)Nc1ccc2nc(SCC(=O)NCc3ccc(Cl)cc3)sc2c1 | 10.2 | 6.7 | 
O=C(CSc1nc2ccc(NC(=O)CCl)cc2s1)NCc1ccccc1 | 4.2 | 1.1 | IC50 [3]: 4.8 µM; IC50 [4]: 1.8 µM; IC50 [5]: 4.1 µM; IC50 [6]: 6.6 µM; IC50 [7]: 4.4 µM; IC50 [8]: 4.9 µM; IC50 [9]: 1.3 µM; IC50 [10]: 1.2 µM; IC50 [11]: 8.8 µM; IC50 [12]: 4 µM; IC50 [13]: 5.2 µM; IC50 [14]: 6.1 µM
O=C(CSc1nc2ccc(NC(=O)c3ccc(Cl)cc3)cc2s1)NCc1ccc(Cl)cc1 | 29.3 | 17.8 | 
COc1ccccc1C(=O)Nc1ccc2nc(SCC(=O)NCc3ccc(Cl)cc3)sc2c1 | 1.1 | 0.6 | IC50 [3]: 6 µM; IC50 [4]: 2.2 µM; IC50 [5]: 2.3 µM; IC50 [6]: 4.4 µM; IC50 [7]: 1.1 µM; IC50 [8]: 4.2 µM; IC50 [9]: 1.5 µM; IC50 [10]: 4.2 µM; Activity [15]: 55.4%; IC50 [11]: 1.2 µM; Activity [16]: 19.2%; IC50 [12]: 2 µM; Activity [17]: Dose-dependent effect; Activity [18]: Dose-dependent effect; IC50 [13]: 5.4 µM; Activity [19]: 35.9%; IC50 [14]: 4.6 µM
COc1ccc(CNC(=O)CSc2nc3ccc(NC(=O)c4ccccc4)cc3s2)cc1 | 21.2 | 12.7 | 
O=C(CSc1nc2ccc(NC(=O)c3ccc([N+](=O)[O-])cc3)cc2s1)NCc1ccccc1 | > 100 | > 100 | 
CNC(=O)CSc1nc2ccc(NC(=O)c3ccccc3)cc2s1 | 34.4 | 26.5 | 
COc1ccc(CNC(=O)CSc2nc3ccc(NC(=O)c4ccc([N+](=O)[O-])cc4)cc3s2)cc1 | > 100 | > 100 | 
COc1ccc(CNC(=O)CSc2nc3ccc(NC(=O)c4ccccc4OC)cc3s2)cc1 | 9.3 | 2.1 | 
COc1ccc(CNC(=O)CSc2nc3ccc(NC(C)=O)cc3s2)cc1 | 20.5 | 11.2 | 
COc1ccccc1C(=O)Nc1ccc2nc(SCC(=O)NCc3ccccc3)sc2c1 | 17.2 | 8 | 
COc1ccc(CNC(=O)CSc2nc3ccc(NC(=O)CCl)cc3s2)cc1 | 5.1 | 2 | 
